The subject of one data set is rat brain. The data set is described as follows: Near-infrared spectroscopy (NIRS) of the rat brain: brain hemoglobin concentration and oxygenation after moderate head injury. Format: in vivo. Conditions: 24 h after moderate head injury; i.v. 0.5 mg/kg.min 10 min then 0.1 mg/kg.min 45 min. The text has this: Near-infrared spectroscopy (NIRS) of the rat brain ‘in vivo’ allows to quantify non-invasively saturation of brain haemoglobin with oxygen (HbSat) and total brain haemoglobin concentration ([HbTot]). The latter is a measure for cerebral blood volume (CBV). Changes in the redox state of the mitochondrial enzyme cytochrome oxidase (CytOx), an indicator for tissue oxygenation, can also be monitored.
HbSat is not affected by compound 1 and the racemate (Comp. 1 and Comp. 2).

A further data set deals with non-traumatised rats. The data set is described as follows: ICP, MABP and CPP in anaesthetised non-traumatised rats. As to conditions: i.v. 0.5 mg/kg/min during 10 minutes, followed by 0.1 mg/kg/min during 50 min. The format is in vivo, rat. The procedure:
The effect of Compound 2, Compound 1 and Racemate (comp. 1 and comp. 2) on ICP, MABP and CPP was tested in anaesthetised non-traumatised rats. The compounds were administered i.v. and the same dose was given as in traumatized rats (0.5 mg/kg/min during 10 minutes, followed by 0.1 mg/kg/min during 50 min).

The subject of data set [1] is Sprague-Dawley rats. Kind of data set: Changes in relevant physiological variables during treatment after severe CHI in rats. The format is in vivo, rat. Conditions: median average change over entire treatment period, % change of initial value; 0.5 mg/kg/min 10 min then 0.1 mg/kg/min 50 min, started 20 min after severe CHI; n = 10. The text has this: (§1) A clinically relevant rat model for traumatic brain injury was used to test the compounds according to the invention. This model mimics several clinical features of traumatic brain injury, such as increased ICP, decreased cerebral perfusion pressure, morphologic alterations including diffuse axonal injury, neuronal necrosis and contusion, impairment of autoregulation of cerebral blood flow and reduction of brain oxygenation and was applied for screening drugs with ICP-lowering effects. Trauma was induced in intubated, isoflurane anesthetized (1.5% isoflurane in a mixture of 30% O2 and 70% N2O) Sprague-Dawley rats (380-400 g) stereotaxically positioned on a table mounted on 4 springs. A 400 g steel cylinder, protected with a 9 mm diameter silicon disc, was dropped on the unprotected skull from a height of either 70 cm or 50 cm (respectively ‘severe’ and ‘moderate’ head injury). The impact area was centered between bregma and lamda. ICP was recorded using a Codman microsensor probe inserted in the parietal cortex. In both severe and moderate head injuries the ICP increased immediately after trauma and remained elevated for several days. The severe head injury mode was used for the evaluation of pharmacological effects immediately after trauma (screening procedure). When survival and recovery from anesthesia was envisaged, the moderate head injury mode was applied. In pharmacological studies, animals with a pathological ICP between 12.5 and 35 mm Hg were included. The changes in ICP, mean arterial blood pressure (MABP) and cerebral perfusion pressure CPP (=[…]) were expressed as percentage of the initial value at onset of the treatment. Screening procedure: On a weekly base, 4 treated groups of 3 rats were compared with 3 saline treated animals. Since conventional statistical methods require a larger amount of animals, a sequential procedure was used. Sequential methods operate in different stages. At each stage, a group of animals was selected as homogeneous as possible. Animals were randomly allocated to either drugs or saline. The procedure allowed to make the decision of rejecting the drug, accepting the drug as active or to continue with a new group of animals in a next stage. Given the biological relevant level of activity that must be detected, the expected fraction of false positive and negative results was known and fixed. A sequential two-sample grouped rank test was used. […] Despite the variability in the individual data, the procedure consistently accepted reference treatments such as mannitol as active, while controls were rejected.
Treatment was started at 20 min after severe head injury and involved administering a dose of 0.5 mg/kg/min during 10 minutes, followed by 0.1 mg/kg/min during 50 min.

Data set [2] has as its system Sprague-Dawley rats. The data set is described as follows: Influence of anaesthesia on effects on ICP and MABP 24 h after moderate trauma. Conditions: i.v. infusion 0.1 mg/kg.min 30 min, medians, n=6. The format is in vivo, rat.
Description: as §1
The effects of treatment with Compound 2 (i.v. infusion at a dose of 0.1 mg/kg.min during 30 min) at 24 h after moderate trauma were studied using different anesthetics (isoflurane, chloralhydrate, pentobarbital). […]

Data set [3] concerns Sprague-Dawley rats. The data set is described as follows: Continuous infusion of 0.1 mg/kg.min in the rat CHI model. Format: in vivo.
Description: as §1
The significant effect of compound 2 on MABP is much less pronounced when the compound is given at a continuous infusion of 0.1 mg/kg.min. […]

The next data set concerns traumatized rats. Kind of data set: Repeated application on elevated ICP in traumatized rats. The format is in vivo, rat. As to conditions: mannitol i.v. 0.125 g/kg/min, same time windows; FIG. 3. The procedure:
Compound 1 was given 2 times with intermittent periods of 20 min at a i.v. dose of 1 mg/kg/min during 10 min, starting a first time 20 min after induction of severe head injury.
Mannitol was given i.v. in the same time windows as Compound 1 at a dose of 0.125 g/kg/min. The control animals received the solvent (containing 10% HP-β-CD, pH 4) only.
This effect is amplified after termination of each, infusion period.

Data set [4] concerns Sprague-Dawley rats. Kind of data set: Closed Head Injury (CHI) model, screening procedure (severe head injury). Format: in vivo, rat.
Description: as §1

Setting [5] is: chloralhydrate 400 mg/kg i.p. anesthesia.
[6] abbreviates: pentobarbital 60 mg/kg i.p. anesthesia.

Broadly, the melting point is the temperature of the solid-liquid transition. `Cc1nc2ccccn2c(=O)c1CCN1CCC(C2(C)c3ccccc3CCn3c2nc2ccccc23)CC1` (stereo not drawn) (hydrate or solvate) [Compound 6]: the melting point was 133.9 °C.
On to `Cc1nc2n(C)c3ccccc3n2c(=O)c1CCN1CCC(C2c3ccccc3CCn3c2nc2ccccc23)CC1Cc1ccccc1` (racemic) [Racemate (comp. 1 and comp. 2), pyrimido[1,2-α]benzimidazol-4(10H)-one, 3-[2-[4-(11,12-dihydro-6H-benzimidazo[2,1-b][3]benzazepin-6-yl)-2-(phenylmethyl)-1-piperidinyl]ethyl]-2,10-dimethyl (E)-2-butenedioate (2:3) hydrate (1:1)], for which, in the data set with rat brain, the “effect on saturation of brain haemoglobin with oxygen (HbSat)” value is listed as “not affected” and the “effect on total brain haemoglobin concentration [HbTot]” value is recorded as “do not have a significant effect”. Also, the “effect on ICP, MABP and CPP” value in the data set with non-traumatised rats is reported as “comparable with those obtained in the traumatized animals”. Further, in the data set with Sprague-Dawley rats [1], the “CPP (%)” value turned out to be 7.5%, the “ETCO2 (%)” value is 2.4%, the “Heart rate(%)” value came out at 5.6% and the “ICP (%)” value is −19.1%. Also, in the data set with Sprague-Dawley rats [1], the “MABP (%)” value was determined as 0.6% and the “Resp. rate(%)” value was found to be 9.6%.
On to `Cc1nc2n(C)c3ccccc3n2c(=O)c1CCN1CCC(C2c3ccccc3CCn3c2nc2ccccc23)CC1Cc1ccccc1` (single isomer, unassigned) [Compound 2, (A)[(2α,4β)(A)] 3-[2-(4-(11,12-dihydro-6H-benzimidazo [2,1-b][3]benzazepin-6-yl)-2-(phenylmethyl)-1-piperidinyl]ethyl]-2,10-dimethyl-pyrimido[1,2-a]benzimidazol-4(10H)-one], for which, in the data set on Sprague-Dawley rats [2] (setting [5]), the “ICP decreases to % of initial value” is given as 75 % of initial value and the “MABP increases to % of initial value” was 110 % of initial value. Further, in the data set with Sprague-Dawley rats [2] (setting [6]), the “ICP decreases to % of initial value” is listed as 64 % of initial value and the “MABP increase up to % of initial value at the end of the infusion” value is given as 141 % of initial value. Further, in the data set with rat brain, the “effect on saturation of brain haemoglobin with oxygen (HbSat)” value was “small but statistically significant reduction” and the “effect on total brain haemoglobin concentration [HbTot]” value was “do not have a significant effect”. For the same compound, the “effect on ICP, MABP and CPP” value in the data set with non-traumatised rats is given as “comparable with those obtained in the traumatized animals”. For the same compound, in the data set with Sprague-Dawley rats [1], the “CPP (%)” value is on record as 24.2%, the “ETCO2 (%)” value was −4.4%, the “Heart rate(%)” value is −9.6% and the “ICP (%)” value is listed as −15.3%. Moreover, in the data set on Sprague-Dawley rats [1], the “MABP (%)” value is reported as 18.8% and the “Resp. rate(%)” value turned out to be 6.6%. For the same compound, in the data set on Sprague-Dawley rats [3], the “maximal reduction of ICP versus infusion preceded by loading dose of 5 mg/kg over 10 min” value is listed as “comparable” and the “time required to obtain maximal reduction of ICP (median)” value stood at 30 min. For the same compound, the “increases in MABP observed” value in the data set on Sprague-Dawley rats [3] (larger increases not observed) is given as at most 20%. Further, in the data set with Sprague-Dawley rats [3] (n=6), the “median MABP increase at the end of the infusion” value is recorded as 9%.
In turn, `Cc1nc2sccn2c(=O)c1CCN1CCC(=C2c3ccccc3CCn3c2nc2ccccc23)CC1` [Compound 5, 6-[2-[4-(11,12-dihydro-6H-benzimidazo [2,1-b][3]benzazepin-6-ylidene)-1-piperidinyl]ethyl]-7-methyl-5H-thiazolo [3,2-a]pyrimidin-5-one] came in with a melting point of 224.9 °C.
`Cc1nc2sccn2c(=O)c1CCN1CCC(C2c3ccccc3C(c3ccccc3)Cn3c2nc2ccccc23)CC1Cc1ccccc1` (stereo not drawn) [Compound 7] showed a melting point of 213.2 °C.
In the case of `Cc1nc2sccn2c(=O)c1CCN1CCC(=C2c3ccccc3C=Cn3c2nc2ccccc23)CC1` [Compound 8, 6-[2-[4-(6H-benzimidazo[2,1-b][3]benzazepin-6-ylidene)-1-piperidinyl]ethyl]-7-methyl-5H-thiazolo[3,2-a]pyrimidin-5-one], the melting point amounted to 178.8 °C.
Take `OC[C@@H](O)[C@@H](O)[C@H](O)[C@H](O)CO` [Mannitol]: the “effect on ICP during infusion” value in the data set with traumatized rats was “lowering of ICP”. Moreover, in the data set with traumatized rats, the “effect on blood pressure” value was “increase in blood pressure during each infusion followed by a decrease in blood pressure after termination of each treatment”. In the data set on Sprague-Dawley rats [4] (i.v. mannitol 3 g over 45 min), the “mean reduction of ICP” value is reported as “about 20%”. The “Decision (based upon sequential statistical evaluation)” value in the data set on Sprague-Dawley rats [4] (severe CHI rats, mannitol infusion of 67 mg/kg/min for 45 min, 5 separate tests) is on record as “active”. Besides, the “Delta %: average change of the relative ICP from baseline over the treatment period” value with Sprague-Dawley rats [4] (severe CHI rats, mannitol infusion of 67 mg/kg/min for 45 min, 5 separate tests, listed as Mannitol^1, 67 mg/kg) is reported as −21.7%; in the data set with Sprague-Dawley rats [4] (severe CHI rats, mannitol infusion of 67 mg/kg/min for 45 min, 5 separate tests, listed as Mannitol^2, 67 mg/kg) it was −22.1%; with Sprague-Dawley rats [4] (severe CHI rats, mannitol infusion of 67 mg/kg/min for 45 min, 5 separate tests, listed as Mannitol^3, 67 mg/kg), −13.0%; in the data set on Sprague-Dawley rats [4] (severe CHI rats, mannitol infusion of 67 mg/kg/min for 45 min, 5 separate tests, listed as Mannitol^4, 67 mg/kg), −19.3%; in the data set on Sprague-Dawley rats [4] (severe CHI rats, mannitol infusion of 67 mg/kg/min for 45 min, 5 separate tests, listed as Mannitol^5, 67 mg/kg), −19.9%.
